In patent US20220280543A1, “DDX17 AND NLRC4 TARGETING FOR INFLAMMATORY DISEASES” (University of Virginia Patent Foundation, priority 2019, published 2022):
Entries after “also recorded” stand apart in the source; their conditions may differ.

Tests used:
NLRP3/NLRC4 complex = assay: Biotin-streptavidin pulldown of biotin-labeled NRTIs with NLRC4/NLRP3, immunoblot; format: binding; settings: immunoblot (FIG. 33)
Procedure: FIG. 33. NRTIs directly bind to NLRP3/NLRC4 complex in a reconstituted system. HEK293 cell were transfected with NLRC4 and NLRP3. Biotin-Labeled NRTIs (D4T, AZT) were added to the HEK cells 4 hours later, and cell pellets were collected for biotin streptavidin pulldown. Binding between NRTIs and NLRC4/NLRP3 was detected by immunoblot. […] The bands of NLRC4 and NLRP3 pulled down with biotinylated NRTI are indicated with black arrows.
Finally, we sought to investigate the mechanism through which NRTIs inhibit NLRC4 inflammasome and asked whether this is NLRP3 dependent. We transfected WT and NLRP3 KO BMDMs with flagellin to examine caspase-1 activation using immunoblot. […] To further confirm the mechanism of action of NRTIs, we investigated whether they directly bind to NLRP3/NLRC4 complex in a reconstituted system. We treated flagellin transfected BMDMs with free and biotin labeled D4T and AZT and pulled down biotin.

RPE degeneration [1] = settings: intraperitoneal administration; previously reported; cited from earlier work
NLRC4 inflammasome = assay: Flagellin-induced caspase-1 activation in wild type BMDM pre-treated with NRTIs, immunoblot; format: cell-based, mouse; settings: NRTI at 100 μM for 1 hour, flagellin transfection 3 μg/ml (FIG. 27)
Procedure: FIG. 27. NRTI block Flagellin induced NLRC4 inflammasome in BMDM. Wild type BMDM cells were pre-treated with exemplary NRTIs (D4T, 3TC) at 100 μM for 1 hour, and then stimulated with flagellin transfection (3 μg/ml). Supernatant and cell lysate were collected for Caspase-1 detection. […] The caspase-1 (p20) bands are indicated with black arrow.
FIG. 28. NRTI (3TC) blocks flagellin-induced NLRC4 inflammasome in a dose dependent manner. Wild type BMDM cell were pre-treated with indicated dose of NRTI (3TC) for 1 hour, and then stimulated with Flagellin transfection (3 μg/ml). Supernatants were collected for Caspase-1 detection. […] The caspase-1 (p20) bands are indicated with black arrow.
FIG. 31. Modified NRTIs (K8, K9) block flagellin-induced NLRC4 inflammasome in BMDM. Wild type BMDM cell were pre-treated with regular NRTI (D4T, 3TC), the modified NRTIs 3-Methyl-3TC (K9) or 2-Ethyl-AZT (K8), or NLRP3 inhibitors (MCC950, CY-09) for 1 hour, and then stimulated with flagellin transfection (3 μg/ml). Supernatants were collected for secreted caspase-1 detection. […] The caspase-1 (p20) bands are indicated with black arrow.
Nucleoside reverse transcriptase inhibitors (NRTIs) are HIV therapeutics that inhibit retrovirus replication. We have previously shown that NRTIs inhibit P2X7-mediated NLRP3 inflammasome activation by an endogenous retroelement Alu RNA (SEQ ID NO: 86). Activation of NLRP3 inflammasome by Alu RNA (SEQ ID NO: 86) causes the death of retinal pigment epithelium (RPE) in geographic atrophy, a severe form of AMD. […] Currently, multiple NLRP3 inflammasome inhibitors such as MCC950, CY09 are available however, there are no inhibitors of NLRC4. So, a need exists to develop inhibitors of NLRC4 inflammasome to study NLRC4 driven diseases. Here, we show for the first time that NRTIs block flagellin induced NLRC4 inflammasome. We pretreated flagellin transfected BMDMs with DT4 and 3TC to examine caspase-1 activation.
NLRC4 oligomerization is another hallmark of inflammasome activation where high-molecular mass NLRC4 protein complexes are assembled. […]

ASC oligomerization [2] = assay: Alu RNA induced ASC oligomerization in human RPE cells after siRNA knockdown; format: cell-based; settings: 24 hours later Alu RNA 100 pmol (FIG. 25A)
Procedure: (§1) FIGS. 25A and 25B. NLRC4 knockdown blocks Alu RNA (SEQ ID NO: 86) induced ASC oligomerization and RPE degeneration. Human RPE cell treated with siRNA target on NLRC4 (SMARTPOOL siRNA for NLRC4: CAACUGGGCUCCUCUGUAA; SEQ ID NO: 93) and NAIP (SMARTPOOL siRNA for NAIP: GUAAAGAGCUAUAUGGAUA; SEQ ID NO: 94), 24 hours later, treated with Alu RNA (SEQ ID NO: 86 at 100 pmol) FIG. 25A. […] The band of ASC oligomers was indicated by black arrow. […] The hyperdense areas due to the RPE degeneration in fundus images and ZO-1 disorganizations in RPE sheet are indicated by white arrows.
(§2) Next, we asked whether Alu RNA (SEQ ID NO: 86) also triggered NLRC4 inflammasome activation in human RPE cells. We performed immunofluorescence staining experiments to examine whether Alu RNA (SEQ ID NO: 86) can induce NLRC4 speck formation in human RPE cells. We noticed punctate structures resembling specks of NLRC4 in human RPE cells in response to Alu RNA (SEQ ID NO: 86) treatment (FIG. 24A). […] We further investigated downstream events of NLRC4 inflammasome activation by studying NLRC4-induced ASC oligomerization, a critical step involved in caspase-1 cleavage. NLRC4 siRNA, when co-administered with Alu RNA (SEQ ID NO: 86), blocked ASC oligomerization in vitro (FIG. 25A) and RPE degeneration in vivo (FIG. 25B).

RPE degeneration [3] = assay: Alu RNA induced RPE degeneration in mice, fundus images and ZO-1 staining; format: in vivo; settings: mice, subretinal Alu RNA; fundus and ZO-1 (FIGS. 25B, 26)
Procedure: as §1
FIG. 26. […] Wilde type of C57/B6 mice were intravitreally injected with siRNA target on Ddx17 (siRNA for Ddx17: GGCUAGAUGUGGAAGAUGU; SEQ ID NO: 95), and two days later, Nlrc4^−/−, Naip1-6^−/−, mice and Ddx17 knockdown mice were subretinally injected with Alu RNA (SEQ ID NO: 86). […] The hyperdense areas due to the RPE degeneration in fundus images and ZO-1 disorganizations in RPE sheet are indicated by white arrows.
as §2
We delivered Alu RNA (SEQ ID NO: 86) or Alu RNA (SEQ ID NO: 86)+siDDX17 subretinally in WT or NLRC4 KO or NAIP1-6 KO mice and examined for RPE degeneration using fundus photos and ZO-1 staining as described previously.

p-NLRC4 and caspase-1 = assay: Dicer1 knockdown induced inflammasome activation in BMDM, immunoblot; format: cell-based, mouse
Source text: FIGS. 20A and 20B. DDX17-NLRC4-NLRP3 are required for Dicer1 knockdown induced inflammasome activation. FIG. 20A. Dicer1 knockdown (siRNA for Dicer 1: GCAGUUGUCCUAAACAGAU; SEQ ID NO: 92) causes increase of p-NLRC4 and caspase-1 activation, which were blocked in Ddx17^−/− iBMDMs. FIG. 20B. Dicer1 knockdown-induced caspase-1 cleavage was impaired in Nlrc4^−/− and Nlrp3^−/− BMDMs. The caspase-1 (p20) bands are indicated with black arrows.
We have previously shown that DICER deficiency mediated accumulation of Alu RNA induces NLRP3 inflammasome activation. So we examined whether DICER knockdown could also induce DDX17-NLRC4-NLRP3 signaling. WT and DDX17 KO BMDMs were transfected with siDICER to examine NLRC4 phosphorylation and caspase-1. […] We then determined phosphorylation of NLRC4 and caspase-1 activation in WT, NLRC4 KO and NLRP3 KO BMDMs after transfection with siDICER or sicontrol.

IL-1β = assay: Alu RNA induced IL-1β release in THP1 cells after siRNA knockdown, ELISA; format: cell-based, human; settings: siRNA knockdown (FIG. 12B)
Source text: (§3) FIGS. 12A and 12B. DDX17 knockdown blocks Alu RNA (SEQ ID NO: 86) induced ASC oligomerization and IL-1β release. FIG. 12A. siRNA mediated DDX17 knockdown (siRNA for DDX17: CCAAUCUGAUGUAUCAGGA; SEQ ID NO: 91), but not Ddx5 (siRNA for DDX5: GGAAAUUACAGUUAGAGGU; SEQ ID NO: 89) in THP1 cells, blocked Alu RNA (SEQ ID NO: 86) induced ASC oligomerization. The band of ASC oligomers were indicated by black arrow. FIG. 12B. siRNA mediated DDX17 knockdown, but not Ddx5 in THP1 cells, blocked Alu RNA (SEQ ID NO: 86) induced IL-1β release.
(§4) To further confirm that DDX17 is the sensor for NLRC4, we investigated caspase-1 cleavage by immunoblotting and IL-1β secretion by ELISA in Alu RNA (SEQ ID NO: 86) or mock treated THP1 cells and DDX17 KO BMDMs respectively.

ASC oligomerization [4] = assay: Alu RNA induced ASC oligomerization in THP1 cells after siRNA knockdown; format: cell-based, human; settings: siRNA knockdown (FIG. 12A)
Source text: as §3, §4

[5] = molecular target: T1, mouse NLR family CARD domain containing 4 (Nlrc4) (mouse, UniProt Q3UP24 1-1024); assay: immunofluorescence of endogenous ASC specks and NLRC4 puncta in SINE RNA-transfected BMDMs
T1 construct: Endogenous protein of mouse BMDM / iBMDM
Procedure: FIGS. 3A and 3B. SINE RNA-induced ASC oligomerization is dependent on NLRC4 (BMDM). FIG. 3A. Immunofluorescence images of endogenous ASC specks and NLRC4 puncta in BMDMs after transfected with Alu (SEQ ID NO: 86) or B2 (SEQ ID NO: 88) RNA or transfection reagents only (Mock). […] Moreover, NLRC4 proteins assembled as puncta, and co-resided with ASC specks. FIG. 3B. ASC oligomerizations were evaluated in wild-type and Nlrc4^{-/-} BMDMs through cross-linking and western blot. […] The bands of oligomeric ASC protein were indicated by black arrow.
The activated NLRC4 inflammasome undergoes oligomerization by assembling into high-molecular mass multiprotein complexes. We first investigated in situ assembling of NLRC4 and apoptosis speck (ASC) like protein complexes in response to SINE RNA treatment of BMDMs. Immunofluorescence studies show increased NLRC4 and ASC specks in SINE RNA-treated BMDMs compared to mock-treated cells (FIG. 3A). To assess NLRC4 inflammasome assembly, WT and NLRC4 KO BMDM cells were treated with Alu RNA (SEQ ID NO: 86). Disuccinimidyl suberate (DSS) cross-linked lysates were resolved using denaturing SDS-PAGE to detect ASC oligomers and cell lysates were resolved using native polyacrylamide gel electrophoresis (NATIVE-PAGE) to detect NLRC4 oligomerization. […] NLRC4/ASC oligomerization is essential for the cleavage of pro-caspase-1 into its active form p20 and IL-1β release.

T1 sequence (Q3UP24 whole entry, the tested form may be a part): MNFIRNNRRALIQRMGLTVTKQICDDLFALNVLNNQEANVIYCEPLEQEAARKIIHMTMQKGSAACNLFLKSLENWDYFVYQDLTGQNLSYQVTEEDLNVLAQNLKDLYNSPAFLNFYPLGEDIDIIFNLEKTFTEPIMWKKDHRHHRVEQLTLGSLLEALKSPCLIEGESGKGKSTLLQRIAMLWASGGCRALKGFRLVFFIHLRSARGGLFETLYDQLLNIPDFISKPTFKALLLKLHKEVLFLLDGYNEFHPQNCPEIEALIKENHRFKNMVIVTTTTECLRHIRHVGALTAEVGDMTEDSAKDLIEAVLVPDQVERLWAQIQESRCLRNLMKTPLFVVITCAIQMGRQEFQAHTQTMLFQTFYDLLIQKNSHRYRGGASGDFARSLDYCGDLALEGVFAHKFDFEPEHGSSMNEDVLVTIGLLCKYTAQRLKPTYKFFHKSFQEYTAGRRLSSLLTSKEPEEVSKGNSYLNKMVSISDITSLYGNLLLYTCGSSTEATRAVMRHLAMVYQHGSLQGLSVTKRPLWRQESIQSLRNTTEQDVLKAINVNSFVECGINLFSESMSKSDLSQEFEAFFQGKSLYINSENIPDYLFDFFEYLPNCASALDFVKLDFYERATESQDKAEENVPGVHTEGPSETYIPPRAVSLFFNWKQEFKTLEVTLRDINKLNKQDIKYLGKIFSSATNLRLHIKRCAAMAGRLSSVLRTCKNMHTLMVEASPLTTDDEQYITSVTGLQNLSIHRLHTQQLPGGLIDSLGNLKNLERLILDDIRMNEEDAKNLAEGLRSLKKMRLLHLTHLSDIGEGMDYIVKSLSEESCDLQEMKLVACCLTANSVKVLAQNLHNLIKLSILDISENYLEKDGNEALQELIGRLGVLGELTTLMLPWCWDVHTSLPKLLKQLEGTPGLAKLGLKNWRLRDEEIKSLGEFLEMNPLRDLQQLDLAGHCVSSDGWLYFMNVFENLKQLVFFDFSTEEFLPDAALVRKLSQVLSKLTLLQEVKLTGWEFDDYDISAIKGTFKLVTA

## Cc1cn([C@H]2C[C@H](N=[N+]=[N-])[C@@H](CO)O2)c(=O)[nH]c1=O [AZT, 3′-deoxy-3′-azidothymidine 1-[(2R,4S,5S)-4-Azido-5-(hydroxymethyl)oxolan-2-yl]-5-methylpyrimidine-2,4-dione]
NLRP3/NLRC4 complex
  binding of biotin-labeled NRTI to NLRC4 and NLRP3: interacted with NLRP3 and NLRC4; also recorded: could directly bind to NLRC4 and NLRP3 protein
RPE degeneration [1]
  Alu RNA induced RPE degeneration in mice: prevented

## Cc1cn([C@H]2C=C[C@@H](CO)O2)c(=O)[nH]c1=O [D4T, 1-[(2R,5S)-5-(hydroxymethyl)-2,5-dihydrofuran-2-yl]-5-methyl-1,2,3,4-tetrahydropyrimidine-2,4-dion]
NLRP3/NLRC4 complex
  binding of biotin-labeled NRTI to NLRC4 and NLRP3: interacted with NLRP3 and NLRC4; also recorded: could directly bind to NLRC4 and NLRP3 protein
NLRC4 inflammasome
  flagellin induced caspase-1 activation: blocked; also recorded: reduced
RPE degeneration [1]
  Alu RNA induced RPE degeneration in mice: prevented

## NLRC4 siRNA: SMARTPOOL siRNA for NLRC4: CAACUGGGCUCCUCUGUAA; SEQ ID NO: 93 (listed as RNA, chemistry not given here)
ASC oligomerization [2]
  Alu RNA induced ASC oligomerization, human RPE cells: blocked
ASC oligomerization [2]; listed as SMARTPOOL siRNA for NLRC4
  Alu RNA induced ASC oligomerization, human RPE cells: reduced
RPE degeneration [3]
  Alu RNA induced RPE degeneration in vivo, effect of siRNA: blocked

## siDICER: siRNA for Dicer 1: GCAGUUGUCCUAAACAGAU; SEQ ID NO: 92 (listed as RNA, chemistry not given here)
p-NLRC4 and caspase-1; WT BMDMs (FIG. 20A)
  phosphorylation of NLRC4 after Dicer1 knockdown: induced the phosphorylation of NLRC4
p-NLRC4 and caspase-1; WT BMDMs (FIG. 20B)
  caspase-1 activation after Dicer1 knockdown: induced the activation of caspase-1

## siRNA for Ddx17: siRNA for Ddx17: GGCUAGAUGUGGAAGAUGU; SEQ ID NO: 95, injected in mice (chemistry not fully specified)
IL-1β
  Alu RNA induced IL-1β release, THP1 cells, ELISA: blocked
ASC oligomerization [4]
  Alu RNA induced ASC oligomerization, THP1 cells: blocked
RPE degeneration [3]
  Alu RNA induced RPE degeneration in vivo, effect of siRNA: blocked

B1: mouse apoptosis-associated speck-like protein containing a CARD (ASC) (other, UniProt Q9EPB4 1-193, looked up)
chain: MGRARDAILDALENLSGDELKKFKMKLLTVQLREGYGRIPRGALLQMDAIDLTDKLVSYYLESYGLELTMTVLRDMGLQELAEQLQTTKEESGAVAAAASVPAQSTARTGHFVDQHRQALIARVTEVDGVLDALHGSVLTEGQYQAVRAETTSQDKMRKLFSFVPSWNLTCKDSLLQALKEIHPYLVMDLEQS
notes: Endogenous protein of mouse BMDM
[5]
  binding result: binds
